Experimental data: ChEMBL document CHEMBL5212743, “Selectivity Literature for EUbOPEN Chemogenomics Library wave 3” (2023)

What was measured:
[1] = target: T1, Tyrosine-protein kinase JAK3 (Homo sapiens) (UniProt P52333); assay: Selectivity interaction (KinomeScan (DiscoverX)) EUB0000138c JAK3; settings: at 100 nM
T1 sequence (whole entry): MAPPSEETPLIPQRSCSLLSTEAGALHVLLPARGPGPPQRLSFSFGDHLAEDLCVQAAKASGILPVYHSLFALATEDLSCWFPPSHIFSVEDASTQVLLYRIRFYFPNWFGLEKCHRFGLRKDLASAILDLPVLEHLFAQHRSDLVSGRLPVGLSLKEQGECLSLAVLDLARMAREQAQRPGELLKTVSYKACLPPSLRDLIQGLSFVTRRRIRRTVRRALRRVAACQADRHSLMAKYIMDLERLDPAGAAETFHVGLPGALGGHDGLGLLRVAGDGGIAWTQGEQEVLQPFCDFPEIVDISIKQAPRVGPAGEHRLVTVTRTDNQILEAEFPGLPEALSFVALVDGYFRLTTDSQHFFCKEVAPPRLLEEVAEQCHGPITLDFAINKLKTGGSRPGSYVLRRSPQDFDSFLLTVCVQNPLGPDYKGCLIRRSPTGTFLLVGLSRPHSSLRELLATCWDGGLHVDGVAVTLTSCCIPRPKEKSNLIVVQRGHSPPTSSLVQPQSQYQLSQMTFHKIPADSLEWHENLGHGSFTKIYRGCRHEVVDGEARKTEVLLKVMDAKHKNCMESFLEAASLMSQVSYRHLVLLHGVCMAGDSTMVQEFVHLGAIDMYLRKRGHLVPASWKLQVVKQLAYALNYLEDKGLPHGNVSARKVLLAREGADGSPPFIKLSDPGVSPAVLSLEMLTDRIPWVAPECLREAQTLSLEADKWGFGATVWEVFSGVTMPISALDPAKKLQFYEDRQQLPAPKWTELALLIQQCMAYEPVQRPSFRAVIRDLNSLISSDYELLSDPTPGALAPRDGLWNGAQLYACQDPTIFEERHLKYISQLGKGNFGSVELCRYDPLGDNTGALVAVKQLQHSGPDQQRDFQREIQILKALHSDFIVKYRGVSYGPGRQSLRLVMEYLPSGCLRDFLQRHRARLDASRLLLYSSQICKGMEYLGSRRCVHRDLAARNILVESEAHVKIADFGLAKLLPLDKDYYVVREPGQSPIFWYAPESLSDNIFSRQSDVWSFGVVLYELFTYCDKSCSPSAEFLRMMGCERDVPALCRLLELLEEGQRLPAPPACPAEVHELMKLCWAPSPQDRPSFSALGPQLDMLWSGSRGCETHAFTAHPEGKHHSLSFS

[2] = target: Dual specificity protein kinase CLK2 (Homo sapiens, UniProt P49760); assay: Selectivity interaction (KinomeScan (DiscoverX)) EUB0000138c CLK2; settings: at 100 nM
[3] = target: Tyrosine-protein kinase Fer (Homo sapiens, UniProt P16591); settings: at 1 µM
[4] = target: Calcium/calmodulin-dependent protein kinase kinase 2 (Homo sapiens) (UniProt Q96RR4); assay: Selectivity interaction (KinomeScan (DiscoverX)) EUB0000169b CAMKK2; settings: at 1 µM
[5] = target: MAP kinase-activated protein kinase 5 (Homo sapiens) (UniProt Q8IW41); settings: at 10 µM
[6] = target: Ribosomal protein S6 kinase alpha-1 (Homo sapiens) (UniProt Q15418); settings: at 10 µM
[7] = target: Bone morphogenetic protein receptor type-1B (Homo sapiens) (UniProt O00238); assay: Selectivity interaction (KinomeScan (DiscoverX)) EUB0000702a BMPR1B; settings: at 1 µM
[8] = target: T2, Serine/threonine-protein kinase ULK2 (Homo sapiens) (UniProt Q8IYT8); assay: Selectivity interaction (KinomeScan (DiscoverX)) EUB0000702a ULK2; settings: at 1 µM
T2 sequence (whole entry): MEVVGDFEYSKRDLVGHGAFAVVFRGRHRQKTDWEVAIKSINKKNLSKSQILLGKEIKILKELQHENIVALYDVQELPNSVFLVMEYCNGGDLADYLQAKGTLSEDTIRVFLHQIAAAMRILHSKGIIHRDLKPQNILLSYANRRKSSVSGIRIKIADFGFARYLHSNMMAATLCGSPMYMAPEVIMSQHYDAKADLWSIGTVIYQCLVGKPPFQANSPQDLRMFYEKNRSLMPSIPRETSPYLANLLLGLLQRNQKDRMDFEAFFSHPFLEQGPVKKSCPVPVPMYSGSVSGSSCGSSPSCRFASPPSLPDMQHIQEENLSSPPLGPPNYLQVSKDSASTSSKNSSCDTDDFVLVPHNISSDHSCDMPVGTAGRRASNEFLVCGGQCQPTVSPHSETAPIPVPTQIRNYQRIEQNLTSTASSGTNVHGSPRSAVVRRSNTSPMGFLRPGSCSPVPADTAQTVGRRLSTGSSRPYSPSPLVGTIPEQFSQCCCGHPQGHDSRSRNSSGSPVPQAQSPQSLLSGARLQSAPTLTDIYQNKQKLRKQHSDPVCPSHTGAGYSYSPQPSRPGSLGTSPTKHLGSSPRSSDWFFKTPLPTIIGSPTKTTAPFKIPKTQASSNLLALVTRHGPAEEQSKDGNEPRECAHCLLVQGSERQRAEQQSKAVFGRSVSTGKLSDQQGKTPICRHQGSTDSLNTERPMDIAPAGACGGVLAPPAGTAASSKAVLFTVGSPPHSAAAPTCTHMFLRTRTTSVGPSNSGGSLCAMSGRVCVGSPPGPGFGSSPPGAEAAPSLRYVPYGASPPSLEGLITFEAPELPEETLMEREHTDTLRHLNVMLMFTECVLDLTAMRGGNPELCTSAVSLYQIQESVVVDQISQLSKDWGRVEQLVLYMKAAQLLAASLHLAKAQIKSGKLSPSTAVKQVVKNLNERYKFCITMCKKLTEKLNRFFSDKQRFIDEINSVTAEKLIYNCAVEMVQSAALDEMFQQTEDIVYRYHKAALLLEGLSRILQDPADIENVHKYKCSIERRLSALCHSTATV

[9] = target: Tyrosine-protein kinase ABL1 (Homo sapiens, UniProt P00519, T315I); assay: Selectivity interaction (Enzymatic assay) EUB0000178b ABL1
[10] = target: Cyclin-dependent kinase 2 (Homo sapiens, UniProt P24941); assay: Selectivity interaction (Kinase panel (enzymatic assay)) EUB0000698a CDK2
[11] = target: BMP-2-inducible protein kinase (Homo sapiens) (UniProt Q9NSY1); assay: Selectivity interaction (KinomeScan (DiscoverX)) EUB0000698a BMP2K; settings: at 10 µM
Chain of BMP-2-inducible protein kinase (Homo sapiens) (Q9NSY1 whole entry, looked up): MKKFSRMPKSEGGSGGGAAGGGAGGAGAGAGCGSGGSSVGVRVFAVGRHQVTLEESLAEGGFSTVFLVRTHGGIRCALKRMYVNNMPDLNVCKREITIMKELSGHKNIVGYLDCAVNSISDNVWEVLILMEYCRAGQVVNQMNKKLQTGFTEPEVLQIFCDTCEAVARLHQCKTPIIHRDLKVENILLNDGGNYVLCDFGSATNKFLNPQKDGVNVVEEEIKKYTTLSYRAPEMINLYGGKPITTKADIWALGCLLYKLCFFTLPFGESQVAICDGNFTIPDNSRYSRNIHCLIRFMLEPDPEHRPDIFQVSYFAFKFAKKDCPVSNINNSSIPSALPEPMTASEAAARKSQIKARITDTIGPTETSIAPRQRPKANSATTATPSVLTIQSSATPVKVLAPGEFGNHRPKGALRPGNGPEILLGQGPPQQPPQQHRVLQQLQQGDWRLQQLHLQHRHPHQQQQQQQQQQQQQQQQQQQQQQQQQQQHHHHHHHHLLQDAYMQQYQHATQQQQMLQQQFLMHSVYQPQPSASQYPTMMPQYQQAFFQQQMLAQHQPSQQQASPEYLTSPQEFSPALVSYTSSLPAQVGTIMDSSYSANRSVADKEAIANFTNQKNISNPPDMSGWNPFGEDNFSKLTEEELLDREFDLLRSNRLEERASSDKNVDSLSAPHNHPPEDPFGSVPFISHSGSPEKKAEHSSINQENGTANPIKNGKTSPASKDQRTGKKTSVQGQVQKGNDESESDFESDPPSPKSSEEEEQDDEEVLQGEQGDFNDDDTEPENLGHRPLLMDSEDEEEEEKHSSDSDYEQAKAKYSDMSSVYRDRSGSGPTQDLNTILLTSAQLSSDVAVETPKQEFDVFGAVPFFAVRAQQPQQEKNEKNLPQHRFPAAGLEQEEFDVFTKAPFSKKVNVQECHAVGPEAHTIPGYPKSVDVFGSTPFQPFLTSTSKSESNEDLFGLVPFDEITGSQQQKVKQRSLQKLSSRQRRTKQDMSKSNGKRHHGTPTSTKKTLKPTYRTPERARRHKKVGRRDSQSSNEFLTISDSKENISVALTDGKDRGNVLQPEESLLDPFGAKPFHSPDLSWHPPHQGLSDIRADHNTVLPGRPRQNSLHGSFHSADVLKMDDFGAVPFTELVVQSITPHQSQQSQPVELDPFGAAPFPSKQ

Chain of Calcium/calmodulin-dependent protein kinase kinase 2 (Homo sapiens) (Q96RR4 2-588 limits assumed): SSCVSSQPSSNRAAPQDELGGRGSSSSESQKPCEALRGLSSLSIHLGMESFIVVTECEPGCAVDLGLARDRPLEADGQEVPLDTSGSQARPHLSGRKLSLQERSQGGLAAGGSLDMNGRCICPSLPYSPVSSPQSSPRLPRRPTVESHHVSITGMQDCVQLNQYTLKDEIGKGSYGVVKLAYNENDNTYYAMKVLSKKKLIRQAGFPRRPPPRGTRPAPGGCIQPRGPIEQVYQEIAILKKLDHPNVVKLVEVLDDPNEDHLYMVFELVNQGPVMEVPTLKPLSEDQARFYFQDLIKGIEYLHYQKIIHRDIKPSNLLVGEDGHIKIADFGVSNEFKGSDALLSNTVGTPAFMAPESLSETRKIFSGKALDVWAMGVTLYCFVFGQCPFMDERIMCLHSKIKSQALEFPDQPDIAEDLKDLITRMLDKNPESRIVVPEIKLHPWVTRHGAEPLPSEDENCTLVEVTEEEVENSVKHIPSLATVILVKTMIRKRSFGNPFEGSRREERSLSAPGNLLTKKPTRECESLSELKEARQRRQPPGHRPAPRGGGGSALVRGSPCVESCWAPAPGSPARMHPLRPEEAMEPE
Chain of Bone morphogenetic protein receptor type-1B (Homo sapiens) (O00238 whole entry): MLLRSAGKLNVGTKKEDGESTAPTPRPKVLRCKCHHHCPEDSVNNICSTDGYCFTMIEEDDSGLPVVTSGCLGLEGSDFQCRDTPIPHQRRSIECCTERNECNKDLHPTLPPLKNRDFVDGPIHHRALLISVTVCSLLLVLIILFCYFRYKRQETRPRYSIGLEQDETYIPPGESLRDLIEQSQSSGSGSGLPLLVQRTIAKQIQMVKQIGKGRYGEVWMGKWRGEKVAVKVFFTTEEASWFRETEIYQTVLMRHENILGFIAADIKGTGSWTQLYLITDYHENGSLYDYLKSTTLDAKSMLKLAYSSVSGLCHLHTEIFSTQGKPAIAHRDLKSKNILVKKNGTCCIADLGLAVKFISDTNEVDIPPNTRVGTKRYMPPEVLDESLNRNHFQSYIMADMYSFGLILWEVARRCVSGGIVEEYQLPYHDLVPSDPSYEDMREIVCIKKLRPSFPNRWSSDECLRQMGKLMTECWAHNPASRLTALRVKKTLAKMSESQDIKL
Chain of Tyrosine-protein kinase Fer (P16591 whole entry, looked up): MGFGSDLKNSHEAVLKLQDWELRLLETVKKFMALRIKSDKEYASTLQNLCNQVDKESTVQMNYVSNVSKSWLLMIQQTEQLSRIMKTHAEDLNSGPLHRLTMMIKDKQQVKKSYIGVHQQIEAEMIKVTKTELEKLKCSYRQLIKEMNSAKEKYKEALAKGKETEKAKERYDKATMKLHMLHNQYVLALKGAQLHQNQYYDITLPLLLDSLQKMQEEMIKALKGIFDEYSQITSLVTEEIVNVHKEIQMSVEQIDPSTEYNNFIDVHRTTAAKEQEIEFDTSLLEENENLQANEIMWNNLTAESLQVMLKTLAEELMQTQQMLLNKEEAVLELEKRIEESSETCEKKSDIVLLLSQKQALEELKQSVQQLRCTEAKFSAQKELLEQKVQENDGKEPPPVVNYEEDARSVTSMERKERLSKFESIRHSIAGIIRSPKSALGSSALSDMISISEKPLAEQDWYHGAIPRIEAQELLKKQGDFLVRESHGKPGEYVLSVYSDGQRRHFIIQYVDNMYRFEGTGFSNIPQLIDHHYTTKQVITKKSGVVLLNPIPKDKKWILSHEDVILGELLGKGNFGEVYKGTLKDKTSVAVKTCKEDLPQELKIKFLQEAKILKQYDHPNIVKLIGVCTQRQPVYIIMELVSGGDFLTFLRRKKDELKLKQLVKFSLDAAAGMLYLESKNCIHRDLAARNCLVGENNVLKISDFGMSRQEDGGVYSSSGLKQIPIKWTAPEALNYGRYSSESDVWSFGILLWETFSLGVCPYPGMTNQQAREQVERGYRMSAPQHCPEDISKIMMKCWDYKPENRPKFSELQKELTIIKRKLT
Chain of Dual specificity protein kinase CLK2 (P49760 whole entry, looked up): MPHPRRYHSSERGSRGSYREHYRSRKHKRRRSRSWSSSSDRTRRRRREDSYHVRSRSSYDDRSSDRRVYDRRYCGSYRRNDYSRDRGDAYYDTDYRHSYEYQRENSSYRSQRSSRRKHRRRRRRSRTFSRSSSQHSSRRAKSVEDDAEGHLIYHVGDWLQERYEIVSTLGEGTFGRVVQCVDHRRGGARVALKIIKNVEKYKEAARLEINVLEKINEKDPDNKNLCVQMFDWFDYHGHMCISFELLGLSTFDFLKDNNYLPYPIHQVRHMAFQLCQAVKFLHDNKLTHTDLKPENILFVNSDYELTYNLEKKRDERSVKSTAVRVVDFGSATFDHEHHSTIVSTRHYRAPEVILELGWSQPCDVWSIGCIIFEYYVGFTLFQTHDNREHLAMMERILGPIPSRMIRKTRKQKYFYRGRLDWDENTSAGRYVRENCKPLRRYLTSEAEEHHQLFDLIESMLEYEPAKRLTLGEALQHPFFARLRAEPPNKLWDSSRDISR
Chain of MAP kinase-activated protein kinase 5 (Homo sapiens) (Q8IW41 whole entry): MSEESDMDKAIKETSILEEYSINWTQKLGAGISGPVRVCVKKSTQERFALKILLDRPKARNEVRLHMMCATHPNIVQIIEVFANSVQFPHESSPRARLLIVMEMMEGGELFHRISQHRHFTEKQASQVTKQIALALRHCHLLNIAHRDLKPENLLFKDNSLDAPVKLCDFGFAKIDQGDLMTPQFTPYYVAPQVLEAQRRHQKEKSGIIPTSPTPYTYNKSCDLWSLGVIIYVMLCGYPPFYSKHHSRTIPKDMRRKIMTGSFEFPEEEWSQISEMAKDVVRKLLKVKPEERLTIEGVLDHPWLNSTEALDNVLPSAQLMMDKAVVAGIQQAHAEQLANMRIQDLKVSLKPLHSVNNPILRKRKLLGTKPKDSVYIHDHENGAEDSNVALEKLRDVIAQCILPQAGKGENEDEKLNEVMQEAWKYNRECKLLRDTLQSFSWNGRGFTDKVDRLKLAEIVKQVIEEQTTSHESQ
Chain of Ribosomal protein S6 kinase alpha-1 (Homo sapiens) (Q15418 whole entry, looked up): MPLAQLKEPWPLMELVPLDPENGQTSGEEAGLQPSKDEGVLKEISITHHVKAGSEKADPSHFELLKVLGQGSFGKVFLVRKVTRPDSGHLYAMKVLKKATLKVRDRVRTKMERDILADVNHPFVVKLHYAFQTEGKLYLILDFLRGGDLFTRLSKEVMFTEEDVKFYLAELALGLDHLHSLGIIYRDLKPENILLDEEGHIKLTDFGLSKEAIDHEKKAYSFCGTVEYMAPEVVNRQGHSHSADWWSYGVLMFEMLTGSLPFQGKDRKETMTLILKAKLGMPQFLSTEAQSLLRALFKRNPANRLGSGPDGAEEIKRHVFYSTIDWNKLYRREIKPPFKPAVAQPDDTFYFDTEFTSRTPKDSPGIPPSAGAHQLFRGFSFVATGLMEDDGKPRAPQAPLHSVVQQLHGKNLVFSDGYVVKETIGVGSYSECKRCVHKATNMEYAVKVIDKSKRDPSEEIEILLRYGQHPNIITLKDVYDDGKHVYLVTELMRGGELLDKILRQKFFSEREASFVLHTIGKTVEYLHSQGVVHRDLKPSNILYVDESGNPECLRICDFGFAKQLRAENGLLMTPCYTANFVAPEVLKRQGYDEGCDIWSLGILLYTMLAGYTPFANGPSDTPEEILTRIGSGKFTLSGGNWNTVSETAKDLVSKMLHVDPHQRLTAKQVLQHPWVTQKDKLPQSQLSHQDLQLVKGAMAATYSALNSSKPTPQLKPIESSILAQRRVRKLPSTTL

CNC(=O)c1ccc(Nc2ncc(C(F)(F)F)c(NCc3nccnc3N(C)S(C)(=O)=O)n2)cc1 [DEFACTINIB]
% of control [1]: 8.2%
% of control [2]: 0%

CCOc1cn(-c2ccc(F)cc2C)nc1C(=O)Nc1ccc(Oc2ccnc3cc(OC)c(OC)cc23)c(F)c1
% of control [3]: < 10%

CC[C@@H]1C(=O)N(C)c2cnc(Nc3ccc(C(=O)NC4CCN(C)CC4)cc3OC)nc2N1C1CCCC1
% of control [4]: 3.4%
% of control [5]: 86%
% of control [6]: 13.8%

CN(c1ccnc(CNc2nc(Nc3ccc4c(c3)CC(=O)N4)ncc2C(F)(F)F)n1)S(C)(=O)=O [PF-00911705]
% of control [7]: 3.6%
% of control [8]: 5.4%

CN1C(=O)c2sccc2N(C)c2nc(Nc3ccc(S(N)(=O)=O)cc3)ncc21
IC50 [9]: 0.0166 µM

COc1cc2ncn(-c3cc(OCc4ccccc4C(F)(F)F)c(C(N)=O)s3)c2cc1OC [GW843682X]
IC50 [10]: 7.6 µM
% of control [11]: 1%
